Experimental data published in the supplement of paper PMC10307832.

Key:
Assay in all cases: relative viability (nuclei count vs DMSO), 5 days (fraction); higher = more cells survive
NCI-H1793 = tested on: NCI-H1793
How it was run: (§1)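 Dosing by pin tool came one day after lung cancer cell lines were seeded in 1536-well plates, using either one drug or a fixed anchor-drug dose plus five library-drug doses (not always all listed) in √10 steps. After 5 days, nuclei were counted on 4× images. Relative viability is treated-well nuclei count divided by vehicle-well nuclei count, and values are medians of duplicate plates.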

SW 900 = tested on: SW 900
How it was run: as §1

NCI-H520 = tested on: NCI-H520
How it was run: as §1

H3255 = tested on: H3255
How it was run: as §1

NCI-H2170 = tested on: NCI-H2170
How it was run: as §1

NCI-H2023 = tested on: NCI-H2023
How it was run: as §1

PC-14 = tested on: PC-14
How it was run: as §1

NCI-H647 = tested on: NCI-H647
How it was run: as §1

NCI-H441 = tested on: NCI-H441
How it was run: as §1

NCI-H2405 = tested on: NCI-H2405
How it was run: as §1

RERF-LC-KJ = tested on: RERF-LC-KJ
How it was run: as §1

NCI-H1650 = tested on: NCI-H1650
How it was run: as §1

NCI-H1563 = tested on: NCI-H1563
How it was run: as §1

NCI-H2347 = tested on: NCI-H2347
How it was run: as §1

NCI-H1993 = tested on: NCI-H1993
How it was run: as §1

COR-L23 = tested on: COR-L23
How it was run: as §1

201T = tested on: 201T
How it was run: as §1

NCI-H2085 = tested on: NCI-H2085
How it was run: as §1

EPLC-272H = tested on: EPLC-272H
How it was run: as §1

LOU-NH91 = tested on: LOU-NH91
How it was run: as §1

NCI-H3122 = tested on: NCI-H3122
How it was run: as §1

NCI-H1734 = tested on: NCI-H1734
How it was run: as §1

HCC-44 = tested on: HCC-44
How it was run: as §1

Structure (SMILES): Oc1nc(-c2ccc(C(F)(F)F)cc2)nc2c1CSCC2 [XAV939] + COc1cccc2cc(-c3nc([C@H]4CC[C@H](C(=O)O)CC4)n4ncnc(N)c34)[nH]c12 [OSI-027] (partner 0.5 µM)
- relative viability (NCI-H1793; first compound 0.08 µM): 0.308
- relative viability (NCI-H1793; first compound 0.253 µM): 0.232
- relative viability (NCI-H1793; first compound 0.8 µM): 0.298
- relative viability (NCI-H1793; first compound 2.53 µM): 0.27
- relative viability (SW 900; first compound 0.08 µM): 0.779
- relative viability (SW 900; first compound 0.253 µM): 0.572
- relative viability (SW 900; first compound 0.8 µM): 0.687
- relative viability (SW 900; first compound 2.53 µM): 0.476
- relative viability (NCI-H520; first compound 0.08 µM): 0.262
- relative viability (NCI-H520; first compound 0.253 µM): 0.225
- relative viability (NCI-H520; first compound 0.8 µM): 0.224
- relative viability (NCI-H520; first compound 2.53 µM): 0.225
- relative viability (H3255; first compound 0.08 µM): 0.555
- relative viability (H3255; first compound 0.253 µM): 0.584
- relative viability (H3255; first compound 0.8 µM): 0.6
- relative viability (H3255; first compound 2.53 µM): 0.384
- relative viability (NCI-H2170; first compound 0.08 µM): 0.749
- relative viability (NCI-H2170; first compound 0.253 µM): 0.493
- relative viability (NCI-H2170; first compound 0.8 µM): 0.643
- relative viability (NCI-H2170; first compound 2.53 µM): 0.611
- relative viability (NCI-H2023; first compound 0.08 µM): 0.368
- relative viability (NCI-H2023; first compound 0.253 µM): 0.288
- relative viability (NCI-H2023; first compound 0.8 µM): 0.321
- relative viability (NCI-H2023; first compound 2.53 µM): 0.251
- relative viability (PC-14; first compound 0.08 µM): 1.09
- relative viability (PC-14; first compound 0.253 µM): 0.772
- relative viability (PC-14; first compound 0.8 µM): 0.725
- relative viability (PC-14; first compound 2.53 µM): 0.639
- relative viability (NCI-H647; first compound 0.08 µM): 0.722
- relative viability (NCI-H647; first compound 0.253 µM): 0.46
- relative viability (NCI-H647; first compound 0.8 µM): 0.656
- relative viability (NCI-H647; first compound 2.53 µM): 0.464
- relative viability (NCI-H441; first compound 0.08 µM): 0.657
- relative viability (NCI-H441; first compound 0.253 µM): 0.794
- relative viability (NCI-H441; first compound 0.8 µM): 0.697
- relative viability (NCI-H441; first compound 2.53 µM): 0.568
- relative viability (NCI-H2405; first compound 0.08 µM): 0.605
- relative viability (NCI-H2405; first compound 0.253 µM): 0.586
- relative viability (NCI-H2405; first compound 0.8 µM): 0.611
- relative viability (NCI-H2405; first compound 2.53 µM): 0.598
- relative viability (RERF-LC-KJ; first compound 0.08 µM): 0.607
- relative viability (RERF-LC-KJ; first compound 0.253 µM): 0.533
- relative viability (RERF-LC-KJ; first compound 0.8 µM): 0.464
- relative viability (RERF-LC-KJ; first compound 2.53 µM): 0.526
- relative viability (NCI-H1650; first compound 0.08 µM): 0.817
- relative viability (NCI-H1650; first compound 0.253 µM): 0.6
- relative viability (NCI-H1650; first compound 0.8 µM): 0.742
- relative viability (NCI-H1650; first compound 2.53 µM): 0.443
- relative viability (NCI-H1563; first compound 0.08 µM): 0.844
- relative viability (NCI-H1563; first compound 0.253 µM): 0.769
- relative viability (NCI-H1563; first compound 0.8 µM): 0.708
- relative viability (NCI-H1563; first compound 2.53 µM): 0.614
- relative viability (NCI-H2347; first compound 0.08 µM): 0.571
- relative viability (NCI-H2347; first compound 2.53 µM): 0.217
- relative viability (NCI-H1993; first compound 0.08 µM): 0.563
- relative viability (NCI-H1993; first compound 0.253 µM): 0.493
- relative viability (NCI-H1993; first compound 0.8 µM): 0.596
- relative viability (NCI-H1993; first compound 2.53 µM): 0.461
- relative viability (COR-L23; first compound 0.08 µM): 0.824
- relative viability (COR-L23; first compound 0.253 µM): 0.765
- relative viability (COR-L23; first compound 0.8 µM): 0.77
- relative viability (COR-L23; first compound 2.53 µM): 0.618
- relative viability (201T; first compound 0.08 µM): 0.61
- relative viability (201T; first compound 0.253 µM): 0.487
- relative viability (201T; first compound 0.8 µM): 0.575
- relative viability (201T; first compound 2.53 µM): 0.622
- relative viability (NCI-H2085; first compound 0.08 µM): 0.638
- relative viability (NCI-H2085; first compound 0.253 µM): 0.686
- relative viability (NCI-H2085; first compound 0.8 µM): 0.958
- relative viability (NCI-H2085; first compound 2.53 µM): 0.625
- relative viability (EPLC-272H; first compound 0.08 µM): 0.312
- relative viability (EPLC-272H; first compound 0.253 µM): 0.22
- relative viability (EPLC-272H; first compound 0.8 µM): 0.261
- relative viability (EPLC-272H; first compound 2.53 µM): 0.314
- relative viability (LOU-NH91; first compound 0.08 µM): 0.701
- relative viability (LOU-NH91; first compound 0.253 µM): 0.662
- relative viability (LOU-NH91; first compound 0.8 µM): 0.69
- relative viability (LOU-NH91; first compound 2.53 µM): 0.675
- relative viability (NCI-H3122; first compound 0.08 µM): 1.08
- relative viability (NCI-H3122; first compound 0.253 µM): 0.96
- relative viability (NCI-H3122; first compound 0.8 µM): 0.91
- relative viability (NCI-H3122; first compound 2.53 µM): 0.581
- relative viability (NCI-H1734; first compound 0.08 µM): 0.632
- relative viability (NCI-H1734; first compound 0.253 µM): 0.551
- relative viability (NCI-H1734; first compound 0.8 µM): 0.575
- relative viability (NCI-H1734; first compound 2.53 µM): 0.51
- relative viability (HCC-44; first compound 0.08 µM): 0.611
- relative viability (HCC-44; first compound 0.253 µM): 0.533
- relative viability (HCC-44; first compound 0.8 µM): 0.476
- relative viability (HCC-44; first compound 2.53 µM): 0.726
